Experimental data as given in ChEMBL document CHEMBL4828748, “Design, synthesis, and pharmacological evaluation of sinomenine derivatives on rings A and C: Novel compounds screening for aplastic anemia targeting on cytotoxic T lymphocyte” (Eur J Med Chem, 2021).
The source made the active and inactive calls. The calls are words filed in the database; no cut-off is given here.

Assays:
[1] = Cytotoxicity against C57BL/6J mouse peritoneal macrophages assessed as reduction of cell viability at 10 uM incubated for 24 hrs in presence of LPS by MTT assay; type: cell-based, Peritoneal macrophage
Peritoneal macrophage = experiment: Inhibition of LPS-induced NO production in C57BL/6J mouse peritoneal macrophages at 10 uM measured after 24 hrs in presence of LPS by Griess reagent based assay relative to control; type: functional
[2] = Inhibition of mouse CTLL-2 cells activity at 10 uM incubated for 24 hrs; type: functional
[3] = Inhibition of mouse CTLL-2 cells activity incubated for 24 hrs; type: functional, cell-based
CD8-positive T cell [4] = experiment: Inhibition of CD3/CD28 antibody-stimulated C57BL/6 mouse primary CD8-positive T lymphocytes proliferation assessed as reduction in cell viability incubated for 48 hrs by CCK8 assay; type: functional, tissue-based; conditions: dose 1-10 µM
[5] = Inhibition of CD3/CD28 antibody-stimulated C57BL/6 mouse primary CD8-positive T lymphocytes activation assessed as proportion of CD69-positive cells at 1 uM incubated for 48 hrs by flow cytometry (reference value: 93.42%); type: functional, CD8-positive T cell; parameters: scale not given: the % may be the effect or the level left
CD8-positive T cell [6] = experiment: Inhibition of CD3/CD28 antibody-stimulated C57BL/6 mouse primary CD8-positive T lymphocytes proliferation at 1 to 5 uM incubated for 48 hrs by CFSE staining based flow cytometry; type: functional, tissue-based; conditions: dose 1-5 µM
CD8-positive T cell [7] = experiment: Inhibition of aerobic glycolysis in CD3/CD28 antibody-stimulated C57BL/6 mouse primary CD8-positive T lymphocytes assessed as reduction in glucose consumption at 1 to 5 uM incubated for 48 hrs; type: functional, tissue-based; conditions: dose 1-5 µM
CD8-positive T cell [8] = experiment: Inhibition of aerobic glycolysis in CD3/CD28 antibody-stimulated C57BL/6 mouse primary CD8-positive T lymphocytes assessed as reduction in lactate production at 1 to 5 uM incubated for 48 hrs; type: functional, tissue-based; conditions: dose 1-5 µM
[9] = Inhibition of hematopoietic negative regulators release in CD3/CD28 antibody-stimulated C57BL/6 mouse primary CD8-positive T lymphocytes assessed as suppression of IFN-gamma release measured after 48 hrs by ELISA; type: functional, tissue-based; conditions: C57BL/6, CD8-positive T cell
[10] = Inhibition of hematopoietic negative regulators release in CD3/CD28 antibody-stimulated C57BL/6 mouse primary CD8-positive T lymphocytes assessed as suppression of TNF-alpha release measured after 48 hrs by ELISA; type: functional, tissue-based; conditions: C57BL/6, CD8-positive T cell
[11] = Inhibition of IFN-gamma release in mouse CTLL-2 cells measured after 24 hrs by ELISA; type: functional, cell-based; conditions: CTLL-2, 24 h
Mus musculus [12] = experiment: Anti-aplastic anaemia in immune-mediated bone marrow failure BALB/c mouse model assessed as increase in RBC count at 2.5 to 10 mg/kg, po administered for 14 days and measured on day 14 by automated micro-analyzer; type: functional, organism-based; conditions: dose 2.5-10 mg/kg, time 14.0 day
Mus musculus [13] = experiment: Anti-aplastic anaemia in immune-mediated bone marrow failure BALB/c mouse model assessed as increase in hemoglobin content at 2.5 to 10 mg/kg, po administered for 14 days and measured on day 14 by automated micro-analyzer; type: functional, organism-based; conditions: dose 2.5-10 mg/kg, time 14.0 day
Mus musculus [14] = experiment: Anti-aplastic anaemia in immune-mediated bone marrow failure BALB/c mouse model assessed as increase in hematocrit content at 2.5 to 10 mg/kg, po administered for 14 days and measured on day 14 by automated micro-analyzer; type: functional, organism-based; conditions: dose 2.5-10 mg/kg, time 14.0 day
Mus musculus [15] = experiment: Anti-aplastic anaemia in immune-mediated bone marrow failure BALB/c mouse model assessed as increase in WBC count at 2.5 to 10 mg/kg, po administered for 14 days and measured on day 14 by automated micro-analyzer; type: functional, organism-based; conditions: dose 2.5-10 mg/kg, time 14.0 day
Mus musculus [16] = experiment: Anti-aplastic anaemia in immune-mediated bone marrow failure BALB/c mouse model assessed as increase in neutrophils count at 2.5 to 10 mg/kg, po administered for 14 days and measured on day 14 by automated micro-analyzer; type: functional, organism-based; conditions: dose 2.5-10 mg/kg, time 14.0 day
Mus musculus [17] = experiment: Anti-aplastic anaemia in immune-mediated bone marrow failure BALB/c mouse model assessed as increase in eosinophils count at 2.5 to 10 mg/kg, po administered for 14 days and measured on day 14 by automated micro-analyzer; type: functional, organism-based; conditions: dose 2.5-10 mg/kg, time 14.0 day
Mus musculus [18] = experiment: Anti-aplastic anaemia in immune-mediated bone marrow failure BALB/c mouse model assessed as increase in platelet count at 2.5 to 10 mg/kg, po administered for 14 days and measured on day 14 by automated micro-analyzer; type: functional, organism-based; conditions: dose 2.5-10 mg/kg, time 14.0 day
Mus musculus [19] = experiment: Anti-aplastic anaemia in immune-mediated bone marrow failure BALB/c mouse model assessed as increase in plateletcrit at 2.5 to 10 mg/kg, po administered for 14 days and measured on day 14 by automated micro-analyzer; type: functional, organism-based; conditions: dose 2.5-10 mg/kg, time 14.0 day
Mus musculus [20] = experiment: Anti-aplastic anaemia in immune-mediated bone marrow failure BALB/c mouse model assessed as increase in immature reticulocytes administered orally for 14 days and measured on day 14 by automated micro-analyzer; type: functional, organism-based; conditions: dose 2.5-10 mg/kg, time 14.0 day
Mus musculus [21] = experiment: Anti-aplastic anaemia in immune-mediated bone marrow failure BALB/c mouse model assessed as reduction in histopathological changes in femur at 2.5 to 10 mg/kg, po administered for 14 days and measured on day 14 by Hematoxylin-Eosin staining based analysis; type: functional, organism-based; conditions: dose 2.5-10 mg/kg, time 14.0 day
Mus musculus [22] = experiment: Anti-aplastic anaemia in immune-mediated bone marrow failure BALB/c mouse model assessed as increase in nucleated cell counts in femur at 2.5 to 10 mg/kg, po administered for 14 days and measured on day 14 by Hematoxylin-Eosin staining based analysis; type: functional, organism-based; conditions: dose 2.5-10 mg/kg, time 14.0 day
[23] = Acute toxicity in po dosed Kunming mouse; type: organism-based; conditions: in vivo
[24] = Acute toxicity in Kunming mouse assessed as animal survival without abnormal state at 5 to 10 g/kg, po administered as single dose; type: organism-based; conditions: in vivo, dose 5-10 g/Kg
[25] = biological target: Voltage-gated inwardly rectifying potassium channel KCNH2 (Homo sapiens, UniProt Q12809); experiment: Inhibition of human ERG expressed in CHO cells measured after 24 hrs by patch clamp assay; type: cell-based
Sequence of Voltage-gated inwardly rectifying potassium channel KCNH2 (Q12809 whole entry): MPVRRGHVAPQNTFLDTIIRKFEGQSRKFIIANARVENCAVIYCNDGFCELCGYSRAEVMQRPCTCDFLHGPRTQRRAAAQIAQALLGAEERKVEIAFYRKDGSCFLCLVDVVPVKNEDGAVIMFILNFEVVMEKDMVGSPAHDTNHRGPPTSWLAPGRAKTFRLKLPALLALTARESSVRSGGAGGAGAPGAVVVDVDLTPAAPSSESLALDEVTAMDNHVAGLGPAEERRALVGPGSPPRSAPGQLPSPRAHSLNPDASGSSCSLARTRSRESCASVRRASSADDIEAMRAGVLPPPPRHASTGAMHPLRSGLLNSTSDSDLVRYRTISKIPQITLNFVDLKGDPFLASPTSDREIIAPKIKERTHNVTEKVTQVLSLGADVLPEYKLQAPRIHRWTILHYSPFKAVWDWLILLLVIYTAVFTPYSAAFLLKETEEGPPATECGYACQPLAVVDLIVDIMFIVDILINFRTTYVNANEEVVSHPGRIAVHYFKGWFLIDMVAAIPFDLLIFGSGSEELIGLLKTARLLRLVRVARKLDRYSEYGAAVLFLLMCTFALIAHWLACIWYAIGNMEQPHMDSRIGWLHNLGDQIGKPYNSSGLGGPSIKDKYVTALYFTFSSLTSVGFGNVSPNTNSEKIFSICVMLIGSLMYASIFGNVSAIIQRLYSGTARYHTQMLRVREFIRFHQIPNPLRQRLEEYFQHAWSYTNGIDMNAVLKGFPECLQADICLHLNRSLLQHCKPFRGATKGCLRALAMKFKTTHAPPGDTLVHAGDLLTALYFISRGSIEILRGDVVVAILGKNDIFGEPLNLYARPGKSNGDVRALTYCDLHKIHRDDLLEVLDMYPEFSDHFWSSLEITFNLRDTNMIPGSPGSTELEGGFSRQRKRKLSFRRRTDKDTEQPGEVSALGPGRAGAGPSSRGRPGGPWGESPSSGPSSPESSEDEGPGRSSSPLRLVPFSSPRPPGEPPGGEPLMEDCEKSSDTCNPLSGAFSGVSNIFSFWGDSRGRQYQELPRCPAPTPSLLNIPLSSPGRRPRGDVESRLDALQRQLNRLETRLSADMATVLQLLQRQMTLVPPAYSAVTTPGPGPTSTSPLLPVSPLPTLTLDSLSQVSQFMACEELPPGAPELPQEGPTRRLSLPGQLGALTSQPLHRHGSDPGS

hERG (KCNH2) = hERG (KCNH2) (Homo sapiens, UniProt Q12809); experiment: Inhibition of human ERG expressed in CHO cells measured after 24 hrs by patch clamp assay relative to control; type: cell-based; conditions: CHO cells expressing human ERG
Sequence of hERG (KCNH2) (Q12809 whole entry): as above

[26] = Cytotoxicity against C57BL/6 mouse primary CD8-positive T lymphocytes assessed as effect on cell viability at 1 to 5 uM incubated for 48 hrs by CCK8 assay; type: tissue-based; conditions: dose 1-5 µM
[27] = Inhibition of CD3/CD28 antibody-stimulated C57BL/6 mouse primary CD8-positive T lymphocytes activation assessed as proportion of CD69-positive cells at 3 uM incubated for 48 hrs by flow cytometry (reference value: 93.42%); type: functional, CD8-positive T cell; parameters: scale not given: the % may be the effect or the level left
[28] = Inhibition of CD3/CD28 antibody-stimulated C57BL/6 mouse primary CD8-positive T lymphocytes activation assessed as proportion of CD69-positive cells at 5 uM incubated for 48 hrs by flow cytometry (reference value: 93.42%); type: functional, CD8-positive T cell; parameters: scale not given: the % may be the effect or the level left
Mus musculus [29] = experiment: Anti-aplastic anaemia in immune-mediated bone marrow failure BALB/c mouse model assessed as increase in ratio of nucleated cell to erythroid cell counts in femur at 2.5 to 10 mg/kg, po administered for 14 days and measured on day 14 by Hematoxylin-Eosin staining based analysis; type: functional, organism-based; conditions: dose 2.5-10 mg/kg, time 14.0 day
Mus musculus [30] = experiment: Anti-aplastic anaemia in immune-mediated bone marrow failure BALB/c mouse model assessed as slowing down the weight loss at 2.5 to 10 mg/kg, po administered for 14 days; type: functional, organism-based; conditions: dose 2.5-10 mg/kg, time 14.0 day
Mus musculus [31] = experiment: Anti-aplastic anaemia in immune-mediated bone marrow failure BALB/c mouse model assessed as prevention of food intake decrease at 2.5 to 10 mg/kg, po administered for 14 days; type: functional, organism-based; conditions: dose 2.5-10 mg/kg, time 14.0 day
Mus musculus [32] = experiment: Anti-aplastic anaemia in immune-mediated bone marrow failure BALB/c mouse model assessed as increase in spleen index at 2.5 to 10 mg/kg, po administered for 14 days; type: functional, organism-based; conditions: dose 2.5-10 mg/kg, time 14.0 day
Mus musculus [33] = experiment: Anti-aplastic anaemia in immune-mediated bone marrow failure BALB/c mouse model assessed as increase in thymus index at 2.5 to 10 mg/kg, po administered for 14 days; type: functional, organism-based; conditions: dose 2.5-10 mg/kg, time 14.0 day

## COC1=C[C@@H]2[C@@H]3Cc4c(COC(=O)/C=C/c5ccccc5)cc(OC)c(OC(=O)/C=C/c5ccccc5)c4[C@]2(CCN3C)CC1=O
[1]
  inhibition at 24 h, 10 µM: 6.4%
Peritoneal macrophage
  inhibition at 10 µM: 97.1%
[2]
  inhibition at 10 µM: 98.1%
[3]
  IC50: 2300 nM
CD8-positive T cell [4]
  inhibition: Dose-Dependent Effect
[5]
  Activity: 89.37%
CD8-positive T cell [6]
  inhibition: Active
CD8-positive T cell [7]
  inhibition: Active
CD8-positive T cell [8]
  inhibition: Active
[9]
  IC50: 3.2 µM
[10]
  IC50: 4.4 µM
[11]
  IC50: 4.5 µM
Mus musculus [12]
  Activity: Active
Mus musculus [13]
  Activity: Active
Mus musculus [14]
  Activity: Active
Mus musculus [15]
  Activity: Active
Mus musculus [16]
  Activity: Active
Mus musculus [17]
  Activity: Active
Mus musculus [18]
  Activity: Active
Mus musculus [19]
  Activity: Active
Mus musculus [20]
  Activity: Active
Mus musculus [21]
  Activity: Active
Mus musculus [22]
  Activity: Active
[23]
  LD50: > 10000 mg/kg
[24]
  Survival: 14 days
[25]
  IC50: > 30 µM
hERG (KCNH2)
  inhibition at 24 h: 26.2%
[26]
  Activity: Non-Toxic
[27]
  Activity: 80.87%
[28]
  Activity: 76.97%
Mus musculus [29]
  Activity: Active
Mus musculus [30]
  Activity: Active
Mus musculus [31]
  Activity: Active
Mus musculus [32]
  Activity: Active
Mus musculus [33]
  Activity: Active
